Like-named read-outs stand apart in the source and are kept apart here.
Assays:
[1] = test system: Staphylococcus aureus ATCC 29213; assay: MIC by microdilution, compound alone or in combination with an aminoglycoside; assay type: cell-based; conditions: for MIC of aminoglycoside against S. aureus ATCC 29213 in combination with Compound 14: Compound 14 used at 4 μg/mL; for Potentiation fold with Compound 14: MIC aminoglycoside alone / MIC with Compound 14 at 4 μg/mL; for MIC: Staphylococcus aureus, ATCC29213, 20 h; for MIC vs ATCC29213: hydrochloride; for Combination MIC vs ATCC29213 (MIC of gentamicin in combination with the compound): MIC of gentamicin alone 0.5 μg/mL; for potentiation / synergy with aminoglycoside (gentamicin) in words: S. aureus ATCC 29213
Method: (§1) Method. The minimal inhibitory concentrations (MICs), (i.e. lowest concentration of an antimicrobial that will inhibit the visible growth of a microorganism after incubation), of test compounds were determined against the normal or SCV strains of bacterial species from the Firmicutes phylum. Briefly, MICs were determined using the microdilution method in 96-well plates (Clinical and Laboratory Standards Institute (CLSI), 2011). Bacteria were inoculated at ˜10^5-10^6 CFU/mL and incubated at 35° C. for 20 h (normal strains) or 48 h (SCVs) in brain heart infusion (BHI) broth in order to allow SCVs to reach maximal growth as previously described (Mitchell et al., 2012). Then OD595 nm was read on a microplate reader. […] In this example the range of compound concentrations tested was 0.03 to 64 μg/ml using doubling increments. Strain Staphylococcus aureus NewbouldΔhemB (hemB) was also used in the experiments and is a laboratory-derived stable SCV created by the insertion of the macrolide resistance gene ermA in the hemB gene of this strain to create the SCV phenotype (defective electron transport chain and respiratory deficiency) through inactivation of hemin biosynthesis (Brouillette et al., 2004).
The various antibacterial activities of the test compounds against Staphylococcus aureus ATCC 29213, alone or in combination with gentamicin, and alone against the SCV strain hemB are reported in Table 1.

MRSA USA300 = assay: MIC by microdilution, alone or in combination, MRSA USA300; assay type: cell-based, Staphylococcus aureus; conditions: agent used alone
Method: as §1
(§2) In the present Example the range of compound concentrations tested, using doubling increments, was 0.03 to 64 μg/ml for Compound 14 and up to 1024 μg/ml for gentamicin (GEN), kanamycin (KAN) and cefalexin (CEF) when these compounds were used alone. Compound 14 (Cpd 14) was used at a fixed concentration of 4 μg/ml when added to other antibiotics. The combination of CEF and KAN was used in a 3:2 ratio and doubling increments were used to test the antibacterial activity against MRSA in the absence or presence of Compound 14.

MRSA USA100 = assay: MIC by microdilution, alone or in combination, MRSA USA100; assay type: cell-based, Staphylococcus aureus; conditions: agent used alone
Method: as §1, §2

MRSA COL = assay: MIC by microdilution, alone or in combination, MRSA COL; assay type: cell-based, Staphylococcus aureus; conditions: agent used alone
Method: as §1, §2

[2] = test system: methicillin-resistant Staphylococcus aureus (MRSA) strains; assay: MIC against MRSA strains; assay type: cell-based; conditions: Staphylococcus aureus, MRSA, used alone; tested MRSA strains (kanamycin: two of the strains)
Method: as §1, §2

S. aureus hemB (SaR1) = assay: MIC against tomatidine-resistant SCV mutant SaR1; assay type: cell-based, Staphylococcus aureus; conditions: tomatidine-resistant mutant SaR1
Method: (§3) At each passage, using a microdilution method in 96-well microplates, S. aureus hemB was inoculated at ˜10^5-10^6 CFU/ml and incubated at 35° C. for 48 h. The range of tomatidine concentrations tested was 0.03 to 64 μg/ml using doubling increments. The concentration of gentamicin was fixed at 4 μg/mL when it was used in combination with tomatidine. At each passage, the minimal inhibitory concentrations (MICs) (i.e. lowest concentration of an antimicrobial that inhibits the visible growth of bacteria), of tomatidine was determined. The bacteria used as inoculum for the next passage were from the well preceeding the well showing the MIC (i.e. the well containing half the MIC). At each passage, the population of bacteria serving as the inoculum for the next passage was spread on BHI agar plates and three isolated colonies were collected and frozen until used for whole-genome sequencing.

S. aureus hemB (SaR2) = assay: MIC against tomatidine-resistant SCV mutant SaR2; assay type: cell-based, Staphylococcus aureus; conditions: tomatidine-resistant mutant SaR2
Method: as §3

[3] = test system: S. aureus SCV strain NewbouldΔhemB; assay: MIC by microdilution against SCV strain; assay type: cell-based, Staphylococcus aureus; conditions: for Activity of the compounds against the SCV strain (class) / MIC vs SCV: compound tested alone, strain NewbouldΔhemB
Method: as §1, with “2004). […]” for “2004).”

[4] = test system: Listeria monocytogenes (strain ATCC 13932); assay: Time-kill experiments, Listeria monocytogenes; assay type: cell-based
Method: Time-kill experiments were performed in order to determine whether the effect of test compounds or the combination with an aminoglycoside on Listeria monocytogenes (strain ATCC 13932) is bacteriostatic (prevents growth) or bactericidal (kills cells).
At several time points during growth at 35° C. (225 RPM), bacteria were sampled, serially diluted and plated on Brain Hearth Infusion agar (BHIA) for colony-forming unit (CFU) determinations (i.e., viable bacterial counts). Plates were incubated for 24 h at 35° C. It represents the results of three independent experiments.

[5] = read-out: MIC of aminoglycoside against S. aureus ATCC 29213, aminoglycoside alone
[6] = Staphylococcus aureus, read-out: MIC
[7] = S. aureus hemB (SCV strain NewbouldΔhemB)
[8] = MIC gentamicin alone / MIC gentamicin with compound at 8 μg/mL
[9] = Staphylococcus aureus, read-out: MIC vs SCV
[10] = compound tested alone, read-out: MIC vs ATCC29213

NC[C@H]1O[C@H](O[C@H]2[C@H](O)[C@@H](O[C@H]3O[C@H](CO)[C@@H](O)[C@H](N)[C@H]3O)[C@H](N)C[C@@H]2N)[C@H](N)C[C@@H]1O [Tobramycin, reference compound] was tested, and the “MIC of aminoglycoside against S. aureus ATCC 29213 in combination with Compound 14” value (“MIC of aminoglycoside … with Compound 14” for short) [1] was 0.125 µg/mL, the “Potentiation fold with Compound 14” value [1] was 8 fold and the MIC [1, 5] was 1 µg/mL.
In the case of CC1=C(C(=O)O)N2C(=O)[C@@H](NC(=O)[C@H](N)c3ccccc3)[C@H]2SC1 [Cefalexin, cefalexin], the MIC (MRSA USA300; [6]) is reported as 256 µg/mL, the MIC (MRSA USA100; [6]) is reported as 256 µg/mL and the MIC (MRSA COL; [6]) is reported as 256 µg/mL. It also gave an MIC [2] of 256 µg/mL.
In the case of gentamicin [reference compound], the MIC (S. aureus hemB (SaR1)) is reported as 4 to 8 µg/mL, the MIC (S. aureus hemB (SaR2)) is reported as 16 µg/mL and the MIC (MRSA USA300) is reported as 0.5 µg/mL. For the same compound, the MIC [3, 7] was 4 to 8 µg/mL, the MIC (MRSA USA100) was 0.5 µg/mL and the MIC (MRSA COL) was 0.25 µg/mL. For the same compound, the “MIC of aminoglycoside against S. aureus ATCC 29213, aminoglycoside alone” value ([1]; aminoglycoside alone) was 0.5 µg/mL.
“Tomatidine hydrochloride [Compound 3, reference compound]” was tested, and the MIC (S. aureus hemB (SaR1)) was over 32 µg/mL, the MIC (S. aureus hemB (SaR2)) was over 32 µg/mL and the “effect in time-kill in combination with gentamicin” value ([4]; 8 μg/ml with 2 μg/ml gentamicin) was “not seen”. For the same compound, the “effect on growth in time-kill (CFU)” value ([4]; used alone at 8 μg/ml) was “does not affect the growth”, the MIC [3, 7] was 0.0625 µg/mL and the “Activity of the compounds against the SCV strain (class)” value (from here on “Activity of the compounds”) [3] was “High (MIC = 0.06-0.25 μg/mL: high activity)”. The “MIC vs SCV” value [3] was 0.06 µg/mL, the “MIC vs ATCC29213” value ([1]; compound tested alone) was over 64 µg/mL and the “MIC vs ATCC29213” value ([1]; compound tested alone, listed as tomatidine hydrochloride salt) was over 64 µg/mL. For the same compound, the “potentiation activity with gentamicin in words” value (“potentiation activity” below) ([1]; compound used at 8 μg/mL) was “High” and the “Combination MIC vs ATCC29213 (MIC of gentamicin in combination with the compound)” value (shortened to “Combination MIC vs ATCC29213”) ([1]; compound used at 8 μg/mL) was 0.06.
NC[C@H]1O[C@H](O[C@H]2[C@H](O)[C@@H](O[C@H]3O[C@H](CO)[C@@H](O)[C@H](N)[C@H]3O)[C@H](N)C[C@@H]2N)[C@H](O)[C@@H](O)[C@@H]1O [Kanamycin, kanamycin, reference compound] gave an MIC (MRSA USA300; [6]) of over 1020 µg/mL, an MIC (MRSA USA100; [6]) of 256 µg/mL and an MIC (MRSA COL; [6]) of 4 µg/mL. The “MIC of aminoglycoside … with Compound 14” value [1] was 0.25 µg/mL, the “Potentiation fold with Compound 14” value [1] was 16 fold and the MIC [1, 5] was 4 µg/mL.
With NCC[C@H](O)C(=O)N[C@@H]1C[C@H](N)[C@@H](O[C@H]2O[C@H](CN)[C@@H](O)[C@H](O)[C@H]2O)[C@H](O)[C@H]1O[C@H]1O[C@H](CO)[C@@H](O)[C@H](N)[C@H]1O [Amikacin, reference compound] the “MIC of aminoglycoside … with Compound 14” value [1] was 0.25 µg/mL, the “Potentiation fold with Compound 14” value [1] was 16 fold and the MIC [1, 5] was 4 µg/mL.
With C[C@H]1CC[C@]2(NC1)O[C@H]1C[C@H]3[C@@H]4CC[C@H]5CC(NCCCCCCN)CC[C@]5(C)[C@H]4CC[C@]3(C)[C@H]1[C@@H]2C.Cl.Cl.Cl (stereo partly shown) [Compound 18, 3-(N-aminohexyl)-aminotomatidine hydrochloride] the “Activity of the compounds” value [3] was “Moderate (MIC = 0.5-4 μg/mL: moderate activity)”, the “MIC vs SCV” value [3] was 1 µg/mL and the “potentiaton fold with gentamicin” value [1, 8] was 2-4 x. For the same compound, the “potentiation activity” value ([1]; compound used at 8 μg/mL) was “Moderate” and the “Combination MIC vs ATCC29213” value ([1]; compound used at 8 μg/mL) was 0.12-0.25.
With C[C@H]1CC[C@]2(NC1)O[C@H]1C[C@H]3[C@@H]4CC[C@H]5CC(NCCCCN)CC[C@]5(C)[C@H]4CC[C@]3(C)[C@H]1[C@@H]2C.Cl.Cl.Cl (stereo partly shown) [Compound 16, 3-(N-aminobutyl)-aminotomatidine hydrochloride] the “Activity of the compounds” value [3] was “Moderate (MIC = 0.5-4 μg/mL: moderate activity)”, the “MIC vs SCV” value [3] was 0.5 µg/mL and the “potentiaton fold with gentamicin” value ([1]; MIC gentamicin alone / MIC gentamicin with compound at 4 μg/mL) was 4-8 x. For the same compound, the “potentiation / synergy with aminoglycoside (gentamicin) in words” value (“potentiation / synergy” below) [1] was “retain the ability to potentiate”, the “activity vs ATCC29213 in words” value ([1]; compound tested alone) was “Active” and the “MIC vs ATCC29213” value ([1]; compound tested alone) was 16 µg/mL. The “potentiation activity” value ([1]; compound used at 4 μg/mL) was “Moderate-high” and the “Combination MIC vs ATCC29213” value ([1]; compound used at 4 μg/mL) was 0.06-0.12.
In the case of CC(C)CCNC(C)[C@H]1CC[C@H]2[C@@H]3CC[C@H]4C[C@@H](O)CC[C@]4(C)[C@H]3CC[C@]12C.Cl (mixture of isomers) [Compound 50, 3β-Hydroxy-20-isopentylamino-5α-pregnane hydrochloride], the MIC [3, 9] is reported as over 8 µg/mL, the “Activity of the compounds” value [3] is reported as “Low (MIC = ≥8 μg/mL: low activity)” and the “potentiaton fold with gentamicin” value [1, 8] is reported as 4 x. For the same compound, the “potentiation / synergy” value [1] was “strong or moderate synergy”, the MIC [1, 10] was over 64 µg/mL and the “potentiation activity” value ([1]; compound used at 8 μg/mL) was “Moderate”. The “Combination MIC vs ATCC29213” value ([1]; compound used at 8 μg/mL) was 0.12.
[H]/N=C(/N)N[C@H]1[C@H](O)[C@@H](O)[C@H](O[C@@H]2O[C@@H](C)[C@](O)(C=O)[C@H]2O[C@@H]2O[C@@H](CO)[C@H](O)[C@@H](O)[C@@H]2NC)[C@@H](N/C(N)=N\[H])[C@@H]1O [Streptomycin, reference compound] was tested, and the “MIC of aminoglycoside … with Compound 14” value [1] was 1 µg/mL, the “Potentiation fold with Compound 14” value [1] was 4-8 fold and the MIC [1, 5] was 4 to 8 µg/mL.
CCCCNC(C)[C@H]1CC[C@H]2[C@@H]3CC[C@H]4C[C@@H](O)CC[C@]4(C)[C@H]3CC[C@]12C.Cl (mixture of isomers) [Compound 48, 3β-Hydroxy-20-butylamino-5α-pregnane hydrochloride] was tested, and the MIC [3, 9] was 4 to 8 µg/mL, the “Activity of the compounds” value [3] was “Moderate (MIC = 0.5-4 μg/mL: moderate activity)” and the “potentiaton fold with gentamicin” value [1, 8] was 8 x. The “potentiation / synergy” value [1] was “strong or moderate synergy”, the MIC [1, 10] was 64 µg/mL and the “potentiation activity” value ([1]; compound used at 8 μg/mL) was “High”. For the same compound, the “Combination MIC vs ATCC29213” value ([1]; compound used at 8 μg/mL) was 0.06.

From patent US10716797B2, “Steroid alkaloids and compositions and kits thereof” (priority 2013, dated 2020)
